According to patent US20220265629A1, “TREATMENT OF SYSTOLIC DYSFUNCTION AND HEART FAILURE WITH REDUCED EJECTION FRACTION WITH THE COMPOUND (R)-4-(1-((3-(DIFLUOROMETHYL)-1-METHYL-1H-PYRAZOL-4-YL)SULFONYL)-1-FLUOROETHYL)-N-(ISOXAZOL-3-YL)PIPERIDINE-1-CARBOXAMIDE” (MyoKardia, Inc., priority 2019, published 2022):
Where two headings read alike, the source gives them in different places.

Assay: Single ascending oral dose study in healthy volunteers: plasma pharmacokinetics
Assay type: in vivo, human
Conditions: plasma, oral; for concentration at 6 h / concentration at 12 h / concentration at 24 h / concentration at 48 h / concentration at 72 h / AUC(0-t) / AUC(0-inf) / Cmax / half-life / MRT / Tmax / Vd/F: human; for concentration at 12 h: 12 Hours Postdose; for concentration at 24 h: 24 Hours Postdose; for concentration at 48 h: 48 Hours Postdose; for concentration at 72 h: 72 Hours Postdose
Text: This example describes the first-in-human study of Compound I. Based on its mechanism of action, Compound I may offer a targeted therapy for patients with DCM caused by genetic or nongenetic mechanisms. The study was a randomized, double-blind, placebo-controlled, sequential group, single-ascending (oral) close study in healthy subjects aged 18-55 years. Eight dosing cohorts, each comprising eight healthy subjects, were enrolled. Within each cohort, subjects were randomized 6:2 to Compound I:placebo.
Subjects were resident at the clinical site for up to 5 days and 4 nights, from Day −1 (the day before dosing) to Day 4, and received a single dose of Compound I or placebo on Day 1. ECG telemetry was initiated 1 hour preclose and continued through 48 hours postclose (Day 3). Any subject with a preclose resting HR≥80 beats per minute was considered ineligible and not treated. […] Subjects returned for a safety follow-up visit 7 days (±1 day) after dosing.
All randomized study subjects received either Compound I or matching placebo as a single oral dose after a fasting period of at least 6 hours. Compound I drug substance is a crystalline, free-base, synthetic molecule with a molecular weight of 435.4 g/mol.
Compound I was provided as a powder for oral suspension. Placebo was provided as calcium carbonate powder. Both treatments were closed orally as a suspension. The suspension was made using Ora-Plus® suspending vehicle (Perrigo) and a cherry syrup flavoring vehicle (Humco), mixed 50% to 50%. The suspension was followed by approximately 100 mL water. The suspension was made up within 14 days from the time in which it was closed which was consistent with the stability data on the suspension. The suspension was made up so the volume administered to the subjects who received Compound I was the same at 20 mL.
Each subject received a close according to the cohort in which they were enrolled. Cohorts were enrolled sequentially, with each cohort receiving an escalated dose of Compound I. The closes administered were 3 mg, 10 mg, 25 mg, 50 mg, 100 mg, 175 mg, 350 mg, and 525 mg, respectively.
The concentrations of Compound I in human plasma and urine were quantitated by high performance liquid chromatography with tandem mass spectrometric detection (LC MS/MS) (Biological sample analysis study report Alturas AD17-726). Plasma samples were extracted by protein precipitation with acetonitrile containing internal standard MYK-5654. The calibration curves were linear over concentration range of 0.500 to 1000 ng/mL with a lower limit of quantification (LLOQ) of 0.500 ng/mL.
The PK Population included all subjects who received Compound I. Blood samples were collected for PK assessments. The actual timing of the samples may have been modified and/or up to an additional 2 samples may have been requested by the SRC after review of the data from previous cohorts. It was important that PK sampling occurred as closely as possible to the scheduled time (±10%). Both blood and urine samples were used for PK assessments.
In addition, for subjects who received placebo, a single plasma sample near the predicted tmax of Compound I was evaluated to confirm the lack of circulating Compound I. Plasma concentration data for Compound I was summarized using descriptive statistics, including mean, standard deviation (SD), median, minimum, and maximum values, and percent coefficient of variation. Other PK parameters included (but were not limited to) Cmax, tmax, AUC, t1/2, and MRT. Additionally, the apparent terminal-phase terminal half-life was calculated. The close proportionality of AUC and Cmax was explored.

[1] = 350 mg, 350 mg, read-out: Plasma concentration, Geometric Mean
[2] = 350 mg, 350 mg, read-out: Plasma concentration, Mean
[3] = 350 mg, 350 mg, read-out: Plasma concentration, Median
[4] = 525 mg, 525 mg, read-out: Plasma concentration, Geometric Mean
[5] = 525 mg, 525 mg, read-out: Plasma concentration, Mean
[6] = 525 mg, 525 mg, read-out: Plasma concentration, Median
[7] = 350 mg + 525 mg, read-out: Plasma concentration, Geometric Mean
[8] = 350 mg + 525 mg, read-out: Plasma concentration, Mean
[9] = 350 mg + 525 mg, read-out: Plasma concentration, Median

Cn1cc(S(=O)(=O)[C@@](C)(F)C2CCN(C(=O)Nc3ccon3)CC2)c(C(F)F)n1 [Compound I, (R)-4-(1-((3-(difluoromethyl)-1-methyl-1H-pyrazol-4-yl)sulfonyl)-1-fluoroethyl)-N-(isoxazol-3-yl)piperidine-1-carboxamide]
concentration at 6 h (350 mg, 6 Hours Postdose, 350 mg, read-out: Plasma concentration, Mean): 2660 ng/mL | concentration at 6 h (350 mg, 6 Hours Postdose, 350 mg, read-out: Plasma concentration, Median): 2550 ng/mL | concentration at 12 h [1]: 2090 ng/mL | concentration at 12 h [2]: 2140 ng/mL | concentration at 12 h [3]: 2120 ng/mL | concentration at 24 h [1]: 1280 ng/mL | concentration at 24 h [2]: 1320 ng/mL | concentration at 24 h [3]: 1340 ng/mL | concentration at 48 h [1]: 329 ng/mL | concentration at 48 h [2]: 373 ng/mL | concentration at 48 h [3]: 350 ng/mL | concentration at 72 h [1]: 101 ng/mL | concentration at 72 h [2]: 128 ng/mL | concentration at 72 h [3]: 111 ng/mL | AUC(0-t) (350 mg, read-out: AUC0-24, Geometric Mean): 44700 ng·h/mL | AUC(0-t) (350 mg, read-out: AUC0-24, Mean): 45600 ng·h/mL | AUC(0-t) (350 mg, read-out: AUC0-24, Median): 45000 ng·h/mL | AUC(0-t) (350 mg, read-out: AUC0-48, Geometric Mean): 64200 ng·h/mL | AUC(0-t) (350 mg, read-out: AUC0-48, Mean): 65900 ng·h/mL | AUC(0-t) (350 mg, read-out: AUC0-48, Median): 66400 ng·h/mL | AUC(0-t) (350 mg, read-out: AUC0-last, Geometric Mean): 73200 ng·h/mL | AUC(0-t) (350 mg, read-out: AUC0-last, Mean): 76300 ng·h/mL | AUC(0-t) (350 mg, read-out: AUC0-last, Median): 76200 ng·h/mL | AUC(0-inf) (350 mg, read-out: AUC0-∞, Geometric Mean): 73600 ng·h/mL | AUC(0-inf) (350 mg, read-out: AUC0-∞, Mean): 76700 ng·h/mL | AUC(0-inf) (350 mg, read-out: AUC0-∞, Median): 76200 ng·h/mL | Cmax (350 mg, read-out: Cmax, Geometric Mean): 2790 ng/mL | Cmax (350 mg, read-out: Cmax, Mean): 2820 ng/mL | Cmax (350 mg, read-out: Cmax, Median): 2900 ng/mL | half-life (350 mg, read-out: Half-Life Lambda Z, Geometric Mean (converted)): 860 min | half-life (350 mg, read-out: Half-Life Lambda Z, Mean (converted)): 880 min | half-life (350 mg, read-out: Half-Life Lambda Z, Median (converted)): 872 min | MRT (350 mg, read-out: Mean Residence Time, Geometric Mean): 22.4 h | MRT (350 mg, read-out: Mean Residence Time, Mean): 22.8 h | MRT (350 mg, read-out: Mean Residence Time, Median): 22.7 h | Tmax (350 mg, read-out: Tmax, Geometric Mean): 4.84 h | Tmax (350 mg, read-out: Tmax, Mean): 4.95 h | Tmax (350 mg, read-out: Tmax, Median): 5 h | Vd/F (350 mg, read-out: Vz/F, Geometric Mean): 98.3 L | Vd/F (350 mg, read-out: Vz/F, Mean): 98.8 L | Vd/F (350 mg, read-out: Vz/F, Median): 98.4 L | concentration at 6 h (525 mg, 6 Hours Postdose, 525 mg, read-out: Plasma concentration, Geometric Mean): 2160 ng/mL | concentration at 6 h (525 mg, 6 Hours Postdose, 525 mg, read-out: Plasma concentration, Mean): 2220 ng/mL | concentration at 6 h (525 mg, 6 Hours Postdose, 525 mg, read-out: Plasma concentration, Median): 2220 ng/mL | concentration at 12 h [4]: 1780 ng/mL | concentration at 12 h [5]: 1840 ng/mL | concentration at 12 h [6]: 1780 ng/mL | concentration at 24 h [4]: 1190 ng/mL | concentration at 24 h [5]: 1230 ng/mL | concentration at 24 h [6]: 1180 ng/mL | concentration at 48 h [4]: 420 ng/mL | concentration at 48 h [5]: 465 ng/mL | concentration at 48 h [6]: 426 ng/mL | concentration at 72 h [4]: 116 ng/mL | concentration at 72 h [5]: 147 ng/mL | concentration at 72 h [6]: 122 ng/mL | AUC(0-t) (525 mg, read-out: AUC0-24, Geometric Mean): 37500 ng·h/mL | AUC(0-t) (525 mg, read-out: AUC0-24, Mean): 38500 ng·h/mL | AUC(0-t) (525 mg, read-out: AUC0-24, Median): 38200 ng·h/mL | AUC(0-t) (525 mg, read-out: AUC0-48, Geometric Mean): 57000 ng·h/mL | AUC(0-t) (525 mg, read-out: AUC0-48, Mean): 58900 ng·h/mL | AUC(0-t) (525 mg, read-out: AUC0-48, Median): 57400 ng·h/mL | AUC(0-t) (525 mg, read-out: AUC0-last, Geometric Mean): 68100 ng·h/mL | AUC(0-t) (525 mg, read-out: AUC0-last, Mean): 71700 ng·h/mL | AUC(0-t) (525 mg, read-out: AUC0-last, Median): 68600 ng·h/mL | AUC(0-inf) (525 mg, read-out: AUC0-∞, Geometric Mean): 68500 ng·h/mL | AUC(0-inf) (525 mg, read-out: AUC0-∞, Mean): 72100 ng·h/mL | AUC(0-inf) (525 mg, read-out: AUC0-∞, Median): 68800 ng·h/mL | Cmax (525 mg, read-out: Cmax, Geometric Mean): 2290 ng/mL | Cmax (525 mg, read-out: Cmax, Mean): 2350 ng/mL | Cmax (525 mg, read-out: Cmax, Median): 2240 ng/mL | half-life (525 mg, read-out: Half-Life Lambda Z, Geometric Mean (converted)): 882 min | half-life (525 mg, read-out: Half-Life Lambda Z, Mean (converted)): 904 min | half-life (525 mg, read-out: Half-Life Lambda Z, Median (converted)): 826 min | MRT (525 mg, read-out: Mean Residence Time, Geometric Mean): 25.4 h | MRT (525 mg, read-out: Mean Residence Time, Mean): 25.8 h | MRT (525 mg, read-out: Mean Residence Time, Median): 25 h | Tmax (525 mg, read-out: Tmax, Geometric Mean): 4.94 h | Tmax (525 mg, read-out: Tmax, Mean): 4.97 h | Tmax (525 mg, read-out: Tmax, Median): 5 h | Vd/F (525 mg, read-out: Vz/F, Geometric Mean): 162 L | Vd/F (525 mg, read-out: Vz/F, Mean): 166 L | Vd/F (525 mg, read-out: Vz/F, Median): 171 L | concentration at 6 h (6 Hours Postdose, 350 mg + 525 mg, read-out: Plasma concentration, Geometric Mean): 2380 ng/mL | concentration at 6 h (6 Hours Postdose, 350 mg + 525 mg, read-out: Plasma concentration, Mean): 2440 ng/mL | concentration at 6 h (6 Hours Postdose, 350 mg + 525 mg, read-out: Plasma concentration, Median): 2350 ng/mL | concentration at 12 h [7]: 1930 ng/mL | concentration at 12 h [8]: 1990 ng/mL | concentration at 12 h [9]: 1860 ng/mL | concentration at 24 h [7]: 1230 ng/mL | concentration at 24 h [8]: 1280 ng/mL | concentration at 24 h [9]: 1210 ng/mL | concentration at 48 h [7]: 372 ng/mL | concentration at 48 h [8]: 419 ng/mL | concentration at 48 h [9]: 415 ng/mL | concentration at 72 h [7]: 108 ng/mL | concentration at 72 h [8]: 137 ng/mL | concentration at 72 h [9]: 122 ng/mL | concentration at 6 h (6 hours post-dose, bin 0-1000 ng/mL (n = 29), read-out: Plasma Concentration, Mean): 334 ng/mL | concentration at 6 h (6 hours post-dose, bin 0-1000 ng/mL (n = 29), read-out: Plasma Concentration, Median): 286 ng/mL | concentration at 6 h (6 hours post-dose, bin 1001-2000 ng/mL (n = 9), read-out: Plasma Concentration, Mean): 1360 ng/mL | concentration at 6 h (6 hours post-dose, bin 1001-2000 ng/mL (n = 9), read-out: Plasma Concentration, Median): 1270 ng/mL | concentration at 6 h (6 hours post-dose, bin >2000 ng/mL (n = 10), read-out: Plasma Concentration, Mean): 2590 ng/mL | concentration at 6 h (6 hours post-dose, bin >2000 ng/mL (n = 10), read-out: Plasma Concentration, Median): 2420 ng/mL | half-life (across the dose groups, read-out: terminal t1/2): 660 to 960 min | half-life (combined 350 and 525 mg group, read-out: t1/2, range): 660 to 1320 min | Tmax (combined 350 and 525 mg group, read-out: tmax, range): 3 to 6 h | Vd/F (doses ranging from 3 mg to 525 mg, read-out: volume of distribution (Vz/F)): 58 to 166 L | Vd/F (doses up to 175 mg, read-out: mean apparent volume of distribution (Vz/F)): ~78 L | Tmax (healthy volunteers, read-out: Tmax): 4 to 6 h | half-life (healthy volunteers, read-out: terminal t1/2 (half-life) (converted)): ~900 min | Vd (1-compartmental model analysis of in vivo data in human): 0.965 L/kg | clearance (1-compartmental model analysis of in vivo data in human, read-out: CL (Human)): 0.949 mL/min/kg
